Results: patent US5202315A, “Cephalosporin compounds” (Lucky, Ltd., priority 1989, dated 1993)
Converted amounts (≈) assume the structure as drawn. Where two headings read alike, the source gives them in different places.

Assays:
Escherichia coli = experiment: Antibacterial activity against clinically isolated strains, MIC; assay type: cell-based; settings: 38 clinical isolates, broth microdilution test
[1] = In-vivo absorbency (plasma concentrations & pharmacokinetic parameters); set-up: species or system SD rat (male); settings: plasma, SD male rat, iv 20 mg/kg; for half-life: rat, iv, 20 mg/kg
Excerpt: The blood samples from the femoral vein of the rats were taken every hour after administration, and analyzed by bio-assay(agar well method).
Tested animal: SD male Rat (220~340 g)

[2] = system: Staphylococcus aureus methicillin susceptible; experiment: Antibacterial activity against clinically isolated strains, MIC; assay type: cell-based; settings: methicillin susceptible, 42 clinical isolates, broth microdilution test
[3] = system: Staphylococcus aureus methicillin resistant; experiment: as above; assay type: cell-based; settings: methicillin resistant, 7 clinical isolates, broth microdilution test
Pseudomonas aeruginosa = experiment: as above; assay type: cell-based; settings: 54 clinical isolates, broth microdilution test
[4] = system: Enterobacter aerogenes ATCC 29751; experiment: Antibacterial activity, MIC; assay type: cell-based; settings: Klebsiella aerogenes, ATCC29751; ATCC 29751; agar two-fold dilution, 37° C., 20 hours; read-out: MIC
Procedure, shortened: (§1)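 The compound is dispersed into Mueller-Hinton agar across a two-fold dilution series. Each strain is applied as 2 μl of a 10^7 CFU/ml suspension and grown 20 hours at 37 °C.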

[5] = system: Proteus mirabilis ATCC 25933; experiment: Antibacterial activity, MIC; assay type: cell-based; settings: ATCC25933, ATCC 25933, agar two-fold dilution, 37° C., 20 hours, read-out: MIC
Procedure, shortened: as §1

[6] = system: Shigella sonnei ATCC 11060; experiment: Antibacterial activity, MIC; assay type: cell-based; settings: ATCC11060, ATCC 11060, agar two-fold dilution, 37° C., 20 hours, read-out: MIC
Procedure, shortened: as §1

[7] = system: Acinetobacter calcoaceticus ATCC 15473; experiment: Antibacterial activity, MIC; assay type: cell-based; settings: ATCC15473, ATCC 15473, agar two-fold dilution, 37° C., 20 hours, read-out: MIC
Procedure, shortened: as §1

[8] = system: Morganella morganii ATCC 8076h; experiment: Antibacterial activity, MIC; assay type: cell-based; settings: ATCC8076H, agar two-fold dilution, 37° C., 20 hours
Procedure, shortened: as §1

[9] = system: Shigella flexneri ATCC 11836; experiment: Antibacterial activity, MIC; assay type: cell-based; settings: ATCC11836, agar two-fold dilution, 37° C., 20 hours
Procedure, shortened: as §1

[10] = system: Enterobacter cloacae ATCC 27508; experiment: Antibacterial activity, MIC; assay type: cell-based; settings: ATCC27508, ATCC 27508, agar two-fold dilution, 37° C., 20 hours, read-out: MIC
Procedure, shortened: as §1

[11] = system: Escherichia coli ATCC 10536; experiment: Antibacterial activity, MIC; assay type: cell-based; settings: ATCC10536, agar two-fold dilution, 37° C., 20 hours
Procedure, shortened: as §1

[12] = system: Bacillus cereus ATCC 11778; experiment: Antibacterial activity, MIC; assay type: cell-based; settings: ATCC11778, ATCC 11778, agar two-fold dilution, 37° C., 20 hours, read-out: MIC
Procedure, shortened: as §1

[13] = system: Citrobacter freundii ATCC 8090; experiment: Antibacterial activity, MIC; assay type: cell-based; settings: ATCC8090, ATCC 8090, agar two-fold dilution, 37° C., 20 hours, read-out: MIC
Procedure, shortened: as §1

[14] = system: Providencia rettgeri ATCC 9250; experiment: Antibacterial activity, MIC; assay type: cell-based; settings: ATCC9250, agar two-fold dilution, 37° C., 20 hours
Procedure, shortened: as §1

[15] = system: Pseudomonas aeruginosa ATCC 25619; experiment: Antibacterial activity, MIC; assay type: cell-based; settings: ATCC25619, ATCC 25619, agar two-fold dilution, 37° C., 20 hours, read-out: MIC
Procedure, shortened: as §1

[16] = system: Bacillus megaterium ATCC 9885; experiment: Antibacterial activity, MIC; assay type: cell-based; settings: Priestia megaterium, ATCC9885; ATCC 9885; agar two-fold dilution, 37° C., 20 hours; read-out: MIC
Procedure, shortened: as §1

[17] = system: Escherichia coli ATCC 25922; experiment: Antibacterial activity, MIC; assay type: cell-based; settings: ATCC25922, agar two-fold dilution, 37° C., 20 hours
Procedure, shortened: as §1

[18] = system: Staphylococcus aureus ATCC 6538p; experiment: Antibacterial activity, MIC; assay type: cell-based; settings: ATCC6538P, ATCC 6538p, agar two-fold dilution, 37° C., 20 hours, read-out: MIC
Procedure, shortened: as §1

[19] = system: Klebsiella pneumoniae ATCC 10031; experiment: Antibacterial activity, MIC; assay type: cell-based; settings: ATCC10031, ATCC 10031, agar two-fold dilution, 37° C., 20 hours, read-out: MIC
Procedure, shortened: as §1

[20] = system: Salmonella typhimurium ATCC 14028; experiment: Antibacterial activity, MIC; assay type: cell-based; settings: Salmonella enterica; ATCC 14028; agar two-fold dilution, 37° C., 20 hours; read-out: MIC
Procedure, shortened: as §1

[21] = system: Staphylococcus epidermidis ATCC 12228; experiment: Antibacterial activity, MIC; assay type: cell-based; settings: ATCC12228, ATCC 12228, agar two-fold dilution, 37° C., 20 hours, read-out: MIC
Procedure, shortened: as §1

[22] = system: Pseudomonas aeruginosa ATCC 27853; experiment: Antibacterial activity, MIC; assay type: cell-based; settings: ATCC27853, ATCC 27853, agar two-fold dilution, 37° C., 20 hours, read-out: MIC
Procedure, shortened: as §1

[23] = system: Proteus vulgaris ATCC 6059; experiment: Antibacterial activity, MIC; assay type: cell-based; settings: ATCC6059, ATCC 6059, agar two-fold dilution, 37° C., 20 hours, read-out: MIC
Procedure, shortened: as §1

[24] = system: Serratia marcescens ATCC 27117; experiment: Antibacterial activity, MIC; assay type: cell-based; settings: ATCC27117, ATCC 27117, agar two-fold dilution, 37° C., 20 hours, read-out: MIC
Procedure, shortened: as §1

[25] = In-vivo absorbency (plasma concentrations & pharmacokinetic parameters); set-up: species or system SD rat (male); settings: plasma, SD male rat, iv 20 mg/kg, read-out: Plasma Conc.

Question: With Cc1c(N)nc(SCC2=C(C(=O)[O-])N3C(=O)C(NC(=O)/C(=N\OC(C)(C)C(=O)O)c4csc(N)n4)C3SC2)[n+](C)c1N (centres unmarked) [Compound I-30] as the compound, how does the MIC50 (Escherichia coli) read?
Answer: The MIC50 was 0.13 µg/mL (≈ 0.204 µM).

Question: And the MIC90 (Escherichia coli)?
Answer: The MIC90 was 0.25 µg/mL (≈ 0.392 µM).

Question: And the concentration at 1 h ([1]; 60 min, read-out: Plasma Conc.)?
Answer: The concentration at 1 h was 9600 ng/mL.

Question: And the concentration at 2 h ([1]; 120 min, read-out: Plasma Conc.)?
Answer: Its concentration at 2 h is 2700 ng/mL.

Question: What about the AUC ([1]; two compartment model) of the same compound?
Answer: The AUC was 41800 ng·h/mL.

Question: What about the half-life ([1]; two compartment model, read-out: T1/2 (α)) of the same compound?
Answer: The half-life was 4 min.

Question: What about the half-life ([1]; two compartment model, read-out: T1/2 (β)) of the same compound?
Answer: Its half-life is 30 min.

Question: What about the MIC50 [2] of the same compound?
Answer: Its MIC50 is 2 µg/mL (≈ 3.14 µM).

Question: And the MIC90 ([2]; read-out: MIC 90%)?
Answer: The MIC90 was 4 µg/mL (≈ 6.27 µM).

Question: And the MIC50 [3]?
Answer: Its MIC50 is over 128 µg/mL.

Question: And the MIC90 ([3]; read-out: MIC 90%)?
Answer: Its MIC90 is over 128 µg/mL.

Question: What about the MIC50 (Pseudomonas aeruginosa) of the same compound?
Answer: The MIC50 was 2 µg/mL (≈ 3.14 µM).

Question: What about the MIC90 (Pseudomonas aeruginosa; read-out: MIC 90%) of the same compound?
Answer: The MIC90 was 4 µg/mL (≈ 6.27 µM).

Question: What about the MIC [4] of the same compound?
Answer: The MIC was 2 µg/mL (≈ 3.14 µM).

Question: And the MIC [5]?
Answer: Its MIC is 0.031 µg/mL (≈ 0.0486 µM).

Question: And the MIC [6]?
Answer: The MIC was 0.063 µg/mL (≈ 0.0988 µM).

Question: What about the MIC [7] of the same compound?
Answer: Its MIC is 4 µg/mL (≈ 6.27 µM).

Question: What about the MIC [8] of the same compound?
Answer: Its MIC is at most 0.008 µg/mL.

Question: What about the MIC [9] of the same compound?
Answer: The MIC was 0.031 µg/mL (≈ 0.0486 µM).

Question: And the MIC [10]?
Answer: The MIC was 0.063 µg/mL (≈ 0.0988 µM).

Question: What about the MIC [11] of the same compound?
Answer: The MIC was 0.063 µg/mL (≈ 0.0988 µM).

Question: What about the MIC [12] of the same compound?
Answer: Its MIC is 128 µg/mL (≈ 201 µM).

Question: What about the MIC [13] of the same compound?
Answer: The MIC was 0.13 µg/mL (≈ 0.204 µM).

Question: What about the MIC [14] of the same compound?
Answer: The MIC was at most 0.008 µg/mL.

Question: And the MIC [15]?
Answer: The MIC was 2 µg/mL (≈ 3.14 µM).

Question: What about the MIC [16] of the same compound?
Answer: Its MIC is 0.5 µg/mL (≈ 0.784 µM).

Question: And the MIC [17]?
Answer: Its MIC is 0.063 µg/mL (≈ 0.0988 µM).

Question: What about the MIC [18] of the same compound?
Answer: Its MIC is 4 µg/mL (≈ 6.27 µM).

Question: And the MIC [19]?
Answer: The MIC was 0.063 µg/mL (≈ 0.0988 µM).

Question: And the MIC [20]?
Answer: Its MIC is 0.25 µg/mL (≈ 0.392 µM).

Question: And the MIC [21]?
Answer: Its MIC is 2 µg/mL (≈ 3.14 µM).

Question: What about the MIC [22] of the same compound?
Answer: Its MIC is 2 µg/mL (≈ 3.14 µM).

Question: What about the MIC [23] of the same compound?
Answer: Its MIC is 0.063 µg/mL (≈ 0.0988 µM).

Question: What about the MIC [24] of the same compound?
Answer: The MIC was 0.13 µg/mL (≈ 0.204 µM).

Question: What about the concentration at 1 min ([25]; 1 min) of the same compound?
Answer: Its concentration at 1 min is 148000 ng/mL.

Question: And the concentration at 2.5 min ([25]; 2.5 min)?
Answer: The concentration at 2.5 min was 100000 ng/mL.

Question: What about the concentration at 5 min ([25]; 5 min) of the same compound?
Answer: Its concentration at 5 min is 80000 ng/mL.

Question: And the concentration at 10 min ([25]; 10 min)?
Answer: The concentration at 10 min was 54000 ng/mL.

Question: What about the concentration at 20 min ([25]; 20 min) of the same compound?
Answer: The concentration at 20 min was 29000 ng/mL.

Question: What about the concentration at 40 min ([25]; 40 min) of the same compound?
Answer: The concentration at 40 min was 17000 ng/mL.

Question: And the concentration at 2.5 h ([25]; 150 min)?
Answer: The concentration at 2.5 h was 1300 ng/mL.
